We go through two compounds from article PMC11864945 (Frontiers in Pharmacology, 2025).

The conditions of data set [1]: stock solution in DMF, −20°C.
Experimental: Individual stock solutions of PYR, PRA, FBT, FEN and OXF were prepared for standards and quality control samples in DMF at 1 mg/mL. IS stock solution was also prepared in DMF at 400 μg/mL. The mixed working solutions were obtained by mixing the stock solution in different volumes and then performing appropriate dilution in methanol: water (50:50, V/V). The IS working solution of 200 ng/mL was also prepared with DMF from the primary stock solution. […] The working solutions for the analytes and IS were stored at 4°C and brought to room temperature before use.
Stability experiments were conducted in working solutions of the analytes and IS for short term stability at 4°C and stock solutions for long term stability at −20°C, respectively. Peak area ratio responses (Analytes/IS) of stored solutions were compared with those of freshly prepared solutions. The acceptance criterion was ±10.0% deviation when comparing the values of fresh solutions.
For data set [2] the following is noted: beagle, dog, in vivo.
Experimental: (§1) Adaptive feeding and observation were carried out for 7 days before the bioequivalence study. Physical examination, blood routine and blood biochemical tests were performed the day before the trial to ensure the health of the dogs. […] The subjects were orally administered a single dose of test or reference formuations with 100 mL of water with a washout period of 2 weeks. Blood samples were collected into heparinized tubes at 0.00 (pre–dose), 0.17, 0.33, 0.67, 1.00, 1.50, 2.00, 2.50, 3.00, 4.00, 5.00, 6.00, 7.00, 8.00, 9.00, 10.00, 11.00, 12.00, 14.00, 24.00 and 30.00 h after oral administration. […] The number of blood collections for drug analysis was 21 samples in each study period. The collected blood samples were centrifuged in a pre–cooled centrifuge at 2,150 g for 10 min, and the separated plasma was transferred to a clean centrifuge tube and frozen in a −80°C refrigerator until analysis.
(§2) The pharmacokinetic parameters for the analytes were evaluated by non–compartmental analysis using Phoenix WinNonlin software version 8.1 (Certara Corporation, Radnor, PA, United States). The maximum plasma concentration (Cmax), the area under the plasma concentration-time curve from time zero to the last sampling time (AUC0–30), the area under the plasma concentration-time curve from time zero to infinity (AUC0–inf), as the primary target, and their geometric mean ratios (test/reference) using log transformed data were assessed to determine whether the formulations were pharmacokinetically equivalent.
(§3) The study was conducted as an open label, balanced, randomized, crossover, two–treatment, two–period, two–sequence and single–dose design to compare the bioavailability of PYR, PRA, FBT, FEN and OXF between two products in 38 healthy beagle dogs. Each subject received a tablet from the test product (Self–developed preparation) and a tablet from reference product (Drontal® Plus Flavor) under fasting conditions with a washout period of 2 weeks.
The conditions of data set [3]: 20 healthy beagle dogs, identical dose strength, ref Klausz et al., 2015, cited from earlier work.
The nature of data set [4]: Stability of the analytes in beagle dog plasma (bench top, refrigerator, freeze–thaw, autosampler, short and long term storage). Format: physicochemical. Conditions: for Mean stability sample ±SD: n = 5.
Experimental: Stability experiments were conducted in working solutions of the analytes and IS for short term stability at 4°C and stock solutions for long term stability at −20°C, respectively. Peak area ratio responses (Analytes/IS) of stored solutions were compared with those of freshly prepared solutions. The acceptance criterion was ±10.0% deviation when comparing the values of fresh solutions. The stabilities of the analytes in beagle dog plasma were evaluated by analyzing five replicates at LQC and HQC levels. Types of stabilities were following as: bench top stability (room temperature), refrigerator stability (4°C), autosampler stability for processed samples (6°C), freeze–thaw stability (−80°C), short term stability (−20°C) and long term (–80°C) storage stability.
A further data set in a line: in vivo. The following applies: beagle, dog, po.
Where [5] appears, read: autosampler, 6°C, 55 h, processed plasma samples, HQC.
Setting [6] is: autosampler, 6°C, 55 h, processed plasma samples, LQC.
Where [7] appears, read: freeze–thaw after 3rd cycle at −80°C, dog plasma, HQC.
Where [8] appears, read: freeze–thaw after 3rd cycle at −80°C, dog plasma, LQC.
Setting [9] is: long term, −80°C, 120 days, dog plasma, HQC.
The mark [10] stands for this setting: long term, −80°C, 120 days, dog plasma, LQC.
[11] abbreviates: refrigerator, 4°C, 30 h, dog plasma, HQC.
Setting [12] is: refrigerator, 4°C, 30 h, dog plasma, LQC.
[13] abbreviates: short term, −20°C, 48 h, dog plasma, HQC.
[14] abbreviates: short term, −20°C, 48 h, dog plasma, LQC.

Like-named read-outs stand apart in the source and are kept apart here.

Experimental for in vivo: as §1, §2, §3

Turning to `[2H]C([2H])([2H])OC(=O)Nc1nc2ccc(Sc3ccccc3)cc2[nH]1` [IS, Fenbendazole–D3], the “Long–term stability of stock solution (time remained stable)” value in data set [1] came out at 104 days.
As for `CN1CCCN=C1/C=C/c1cccs1` [Pyrantel, pyrantel], the “GMR (Test/Reference) of AUC0–30” value in data set [2] came out at 110.18%. Moreover, in data set [2], the “GMR (Test/Reference) of AUC0–inf” value is 111.84%. Moreover, in data set [2], the “GMR (Test/Reference) of Cmax” value was found to be 112.68%. Also, the “AUC0–30” value in data set [2] (po) was 378.04 ± 102.58 ng·h/mL. In addition, in data set [2] (po), the “AUC0–inf” value was 429.16 ± 117.30 ng·h/mL. Moreover, the Cmax in data set [2] (po) is 69.17 ± 21.12 ng/mL; in data set [3] (reference products) it was 81.1 ng/mL; in data set [3] (test products) it was 78.5 ng/mL. For the same compound, the “Kel (elimination rate constant)” value in data set [2] (po) was 0.20 ± 0.08 h⁻¹. Besides, the time to peak (Tmax) in data set [2] (po) turned out to be 2.87 ± 1.06 h; in the data set “in vivo” (Tmax), 3.08 ± 0.98 h. The “t1/2 (elimination half–life)” value in data set [2] (po) is 4.87 ± 4.38 h. The Accuracy is 108.07% in data set [4] (setting [5]); 107.25% in data set [4] (setting [6]); 90.68% in data set [4] (bench top, room temperature, 8 h, dog plasma, HQC, % of nominal concentration); 94.15% in data set [4] (bench top, room temperature, 8 h, dog plasma, LQC, % of nominal concentration); 94.84% in data set [4] (setting [7]); 92.15% in data set [4] (setting [8]). Further, the Accuracy in data set [4] (setting [9]) came out at 97.25%; in data set [4] (setting [10]), 88.57%; in data set [4] (setting [11]) it was 97.21%; in data set [4] (setting [12]), 97.18%; in data set [4] (setting [13]), 107.76%; in data set [4] (setting [14]), 100.41%. The “Mean stability sample ±SD” value is reported as 194.53 ± 3.27 ng/mL in data set [4] (setting [5]); 12.87 ± 0.28 ng/mL in data set [4] (setting [6]); 163.22 ± 1.45 ng/mL in data set [4] (bench top, room temperature, 8 h, dog plasma, HQC (added 180 ng/mL PYR/OXF, 675 PRA, 90 FBT, 450 FEN)); 11.30 ± 0.66 ng/mL in data set [4] (bench top, room temperature, 8 h, dog plasma, LQC (added 12 ng/mL PYR/OXF, 45 PRA, 6 FBT, 30 FEN)); 170.71 ± 4.98 ng/mL in data set [4] (setting [7]); 11.06 ± 0.55 ng/mL in data set [4] (setting [8]). For the same compound, the “Mean stability sample ±SD” value was determined as 175.05 ± 5.76 ng/mL in data set [4] (setting [9]); 10.63 ± 0.11 ng/mL in data set [4] (setting [10]); 174.99 ± 6.96 ng/mL in data set [4] (setting [11]); 11.66 ± 0.93 ng/mL in data set [4] (setting [12]); 193.96 ± 8.82 ng/mL in data set [4] (setting [13]); 12.05 ± 0.92 ng/mL in data set [4] (setting [14]). The same compound returned an AUC(0-t) in “in vivo” (AUC0–30) of 423 ± 140 ng·h/mL. Further, in “in vivo” (AUC0–inf), the AUC(0-inf) amounted to 489 ± 186 ng·h/mL. For the same compound, the k el in “in vivo” (Kel (elimination rate constant)) is 5.28e-05 s⁻¹. In the data set “in vivo” (t1/2 (elimination half–life)), the half-life was 4.27 ± 2.03 h.

By Cmax is commonly meant the maximum level reached in the sampled fluid or tissue. For orientation: Tmax means the time from dosing to the highest level. Broadly, the AUC(0-t) is the area under the concentration-time curve up to a stated or last time point. Low values mean low exposure, high ones high exposure. In general, AUC(0-inf) refers to the area under the concentration-time curve extrapolated to infinity. Low values mean low exposure, high ones high exposure. Broadly, the half-life is the time needed for the level to fall by half in the phase considered. Read a low half-life as rapid decline.
